Like-named read-outs stand apart in the source and are kept apart here.
Key:
[1] = for max soluble concentration: in water
Text: The solubility of α-2 agonists, in particular, decreases exponentially at an increased pH.

[2] = Text: Oily vehicles such as castor oil solubilize, but these have poor compliance.

Cc1cccc([C@H](C)c2cnc[nH]2)c1C [dexmedetomidine] showed a max soluble concentration ([1]; pH solution 6.0) of 0.195%, a max soluble concentration ([1]; pH solution 6.4) of 0.060% and a max soluble concentration ([1]; pH solution 7.0) of 0.023%. The max soluble concentration ([1]; pH solution 7.4) was 0.015%, the max soluble concentration ([1]; pH solution 8.0) was 0.013% and the degree of solubility ([1]; pH of 4.0 to 6.0) was “very high degree of solubility”. For the same molecule, the “concentration solubilized in the provided compositions” value [2] was ≥ 0.15%.

— patent publication US8999938B2, “Ophthalmic lipophilic drug delivery vehicle formulations” (GNT, LLC, priority 2013, dated 2015)
